{
  "source": "patent US20190380987A1",
  "about": "“COMPOSITION AND METHOD FOR TREATING MUCOLYTIC AND INFLAMMATORY AIRWAY CONDITIONS” (priority 2018, published 2019)",
  "origin": "cited, not measured here",
  "key": {"CF patients": {"tested_on": "CF patients", "details": "2700 mg of oral NAC per day in divided doses of 900 mg, controls declined"}},
  "data": [
    {"smiles": "CC(=O)N[C@@H](CS)C(=O)O", "note": "[N-acetylcysteine]", "values": [
      {"measurement": "solubility in alcohol", "setting": "alcohol", "value": "soluble"},
      {"measurement": "solubility in chloroform", "setting": "chloroform", "value": "practically insoluble"},
      {"measurement": "solubility in ether", "setting": "ether", "value": "practically insoluble"},
      {"measurement": "solubility in water", "setting": "water", "value": "soluble"},
      {"measurement": "lung function decline", "setting": "CF patients", "value": "did not experience lung function decline"}
    ]}
  ]
}
